Test results as given in patent US12371454B2, “Cyclic peptide compound having Kras inhibitory action” (priority 2019, dated 2025).
Starred links: 1 amine or outer side, 2 acyl side, 3 side chain; linkers in the order of their positions; H or OH if unused. Positions of bridges follow the written chain, without caps; N, C: chain ends. Non-standard residues stand in square brackets, D forms with d. Residues, ends and D or L forms follow the SMILES beside them. *: point of attachment. hPhe(3-Cl-4-CF3) = N[C@@H](CCc1ccc(C(F)(F)F)c(Cl)c1)C(=O)O; NMePhe(2-CF3) = CN[C@@H](Cc1ccccc1C(F)(F)F)C(=O)O; NMePhe(3-Br) = CN[C@@H](Cc1cccc(Br)c1)C(=O)O; NMePhe(3-Cl) = CN[C@@H](Cc1cccc(Cl)c1)C(=O)O; NMePhe(4-Br) = CN[C@@H](Cc1ccc(Br)cc1)C(=O)O; NMePhe(4-Me) = CN[C@@H](Cc1ccc(C)cc1)C(=O)O; NMePhe(2-Cl) = CN[C@@H](Cc1ccccc1Cl)C(=O)O; NMePhe(4-F) = CN[C@@H](Cc1ccc(F)cc1)C(=O)O; NMePhe(2-Me) = CN[C@@H](Cc1ccccc1C)C(=O)O; NMedβ3hAla = C[C@H](CC(=O)[*:2])N(C)[*:1]; NMePhe(2-F) = CN[C@@H](Cc1ccccc1F)C(=O)O; NMehPhe = CN[C@@H](CCc1ccccc1)C(=O)O; NMeY = CN[C@@H](Cc1ccc(O)cc1)C(=O)O; NMeCha = CN[C@@H](CC1CCCCC1)C(=O)O; NMeF = CN[C@@H](Cc1ccccc1)C(=O)O; NMeD = CN[C@@H](CC(=O)O)C(=O)O; NMeL = CN[C@@H](CC(C)C)C(=O)O; NMeV = CN[C@H](C(=O)O)C(C)C; d(β3hA) = C[C@@H](N)CC(=O)O; NMeAbu = CC[C@H](NC)C(=O)O; NMeA = CN[C@@H](C)C(=O)O; Piperidide = C1CCN(*)CC1; Ac5c = NC1(C(=O)O)CCCC1; Aze = O=C(O)[C@@H]1CCN1; Sar = CNCC(=O)O

How the values were obtained:
[1] = test system: Human pancreatic cancer cell line AsPC-1; assay: Measurement of AsPC-1 cell growth inhibition (AsPC-1 CGI); type: cell-based; conditions: 96 h
In short: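 AsPC-1 cells in 15% FBS RPMI-1640 were exposed to test compound for 96 hours at 37° C, with CellTiter-Glo as endpoint.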

[2] = target: T1, Kras and SOS1 (biotin-tagged human Kras loaded with GDP, His-tagged human SOS1) (Homo sapiens, UniProt P01116, G12D); assay: Protein-protein interaction inhibition between Kras and SOS1 (KrasGl2D-SOS PPI) using AlphaScreen; type: binding; conditions: AlphaScreen; biotin-tagged human Kras loaded with GDP, His-tagged human SOS1; read-out: KRAS G12D-SOS PPI IC50
T1 construct: made in house; host or cells: E. coli (stated for Kras only)
In short: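 Energy transfer from nickel-chelate donor beads bound to His-SOS1 to streptavidin acceptor beads bound to biotin-Kras, expressed in E. coli and loaded with GDP after purification, was monitored. Donors were excited at 680 nm; singlet oxygen reaching acceptors gave emission read at 520-620 nm.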

T1 sequence (P01116 1-188 isoform P01116-2 G12D): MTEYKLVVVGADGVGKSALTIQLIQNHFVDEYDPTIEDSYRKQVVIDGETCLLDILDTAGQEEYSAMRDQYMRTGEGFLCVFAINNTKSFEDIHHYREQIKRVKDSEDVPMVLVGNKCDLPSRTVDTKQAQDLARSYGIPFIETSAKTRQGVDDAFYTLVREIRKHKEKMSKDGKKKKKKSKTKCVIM

Structure (SMILES)	IC50 [1] [nM]	IC50 [2] [nM]
CC[C@H](C)[C@@H]1NC(=O)[C@H](CC(C)C)N(C)C(=O)C[C@@H](C(=O)N2CCCCC2)N(C)C(=O)[C@H](C(C)C)N(C)C(=O)C2(CCCC2)NC(=O)[C@@H]2CCCN2C(=O)[C@H](CCc2ccc(C(F)(F)F)c(Cl)c2)NC(=O)CN(C)C(=O)[C@H](Cc2ccc(Br)cc2)N(C)C(=O)CN(C)C(=O)CN(C)C1=O [Compound 1576] ([NMeL]I[Sar][Sar][NMePhe(4-Br)][Sar][hPhe(3-Cl-4-CF3)]P[Ac5c][NMeV][NMeD]-Piperidide; lactam N-11)	100 to 500	5.1
CC[C@H](C)[C@@H]1NC(=O)[C@H](CC(C)C)N(C)C(=O)C[C@@H](C(=O)N2CCCCC2)N(C)C(=O)[C@H](C(C)C)N(C)C(=O)C2(CCCC2)NC(=O)[C@@H]2CCCN2C(=O)[C@H](CCc2ccc(C(F)(F)F)c(Cl)c2)NC(=O)CN(C)C(=O)[C@H](Cc2ccccc2C(F)(F)F)N(C)C(=O)CN(C)C(=O)CN(C)C1=O [Compound 1579] ([NMeL]I[Sar][Sar][NMePhe(2-CF3)][Sar][hPhe(3-Cl-4-CF3)]P[Ac5c][NMeV][NMeD]-Piperidide; lactam N-11)	100 to 500	8.2
CC[C@H](C)[C@@H]1NC(=O)[C@H](CC(C)C)N(C)C(=O)C[C@@H](C(=O)N2CCCCC2)N(C)C(=O)[C@H](C(C)C)N(C)C(=O)C2(CCCC2)NC(=O)[C@@H]2CCCN2C(=O)[C@H](CCc2ccc(C(F)(F)F)c(Cl)c2)NC(=O)CN(C)C(=O)[C@H](Cc2ccccc2F)N(C)C(=O)CN(C)C(=O)CN(C)C1=O [Compound 1583] ([NMeL]I[Sar][Sar][NMePhe(2-F)][Sar][hPhe(3-Cl-4-CF3)]P[Ac5c][NMeV][NMeD]-Piperidide; lactam N-11)	100 to 500	12
CC[C@H](C)[C@@H]1NC(=O)[C@H](CC(C)C)N(C)C(=O)C[C@@H](C(=O)N2CCCCC2)N(C)C(=O)[C@H](C(C)C)N(C)C(=O)C2(CCCC2)NC(=O)[C@@H]2CCCN2C(=O)[C@H](CCc2ccc(C(F)(F)F)c(Cl)c2)NC(=O)CN(C)C(=O)[C@H](Cc2ccccc2C)N(C)C(=O)CN(C)C(=O)CN(C)C1=O [Compound 1584] ([NMeL]I[Sar][Sar][NMePhe(2-Me)][Sar][hPhe(3-Cl-4-CF3)]P[Ac5c][NMeV][NMeD]-Piperidide; lactam N-11)	100 to 500	9.5
CC[C@H](C)[C@@H]1NC(=O)[C@H](CC(C)C)N(C)C(=O)C[C@@H](C(=O)N2CCCCC2)N(C)C(=O)[C@H](C(C)C)N(C)C(=O)C2(CCCC2)NC(=O)[C@@H]2CCCN2C(=O)[C@H](CCc2ccc(C(F)(F)F)c(Cl)c2)NC(=O)CN(C)C(=O)[C@H](Cc2ccc(OC)cc2)N(C)C(=O)CN(C)C(=O)CN(C)C1=O [Compound 1588] ([NMeL]I[Sar][Sar][NMeY](Me)[Sar][hPhe(3-Cl-4-CF3)]P[Ac5c][NMeV][NMeD]-Piperidide; lactam N-11)	100 to 500	4.1
CC[C@H](C)[C@@H]1NC(=O)[C@H](CC(C)C)N(C)C(=O)C[C@@H](C)N(C)C(=O)[C@H](C(C)C)N(C)C(=O)C2(CCCC2)NC(=O)[C@@H]2CCCN2C(=O)[C@H](CCc2ccc(C(F)(F)F)c(Cl)c2)NC(=O)CN(C)C(=O)[C@H](COc2ccccc2Cl)N(C)C(=O)CN(C)C(=O)CN(C)C1=O [Compound 1589]	100 to 500	39
CC[C@H](C)[C@@H]1NC(=O)[C@H](CC(C)C)N(C)C(=O)C[C@@H](C)N(C)C(=O)[C@H](C(C)C)N(C)C(=O)C2(CCCC2)NC(=O)[C@@H]2CCCN2C(=O)[C@H](CCc2ccc(C(F)(F)F)c(Cl)c2)NC(=O)CN(C)C(=O)[C@H](Cc2ccc(Br)cc2)N(C)C(=O)CN(C)C(=O)CN(C)C1=O [Compound 1590] (cyclo([Ac5c][NMeV][NMedβ3hAla][NMeL]I[Sar][Sar][NMePhe(4-Br)][Sar][hPhe(3-Cl-4-CF3)]P))	50 to 100	3.2
CC[C@H](C)[C@@H]1NC(=O)[C@H](CC(C)C)N(C)C(=O)C[C@@H](C(=O)N2CCCCC2)N(C)C(=O)[C@H](C(C)C)N(C)C(=O)C2(CCCC2)NC(=O)[C@@H]2CCCN2C(=O)[C@H](CCc2ccc(C(F)(F)F)c(Cl)c2)NC(=O)CN(C)C(=O)[C@H](Cc2ccc(C)cc2)N(C)C(=O)CN(C)C(=O)CN(C)C1=O [Compound 1594] ([NMeL]I[Sar][Sar][NMePhe(4-Me)][Sar][hPhe(3-Cl-4-CF3)]P[Ac5c][NMeV][NMeD]-Piperidide; lactam N-11)	100 to 500	3.2
CC[C@H](C)[C@@H]1NC(=O)[C@H](CC(C)C)N(C)C(=O)C[C@@H](C)N(C)C(=O)[C@H](C(C)C)N(C)C(=O)C2(CCCC2)NC(=O)[C@@H]2CCCN2C(=O)[C@H](CCc2ccc(C(F)(F)F)c(Cl)c2)NC(=O)CN(C)C(=O)[C@H](Cc2cccc(Br)c2)N(C)C(=O)CN(C)C(=O)CN(C)C1=O [Compound 1597] (cyclo([Ac5c][NMeV][NMedβ3hAla][NMeL]I[Sar][Sar][NMePhe(3-Br)][Sar][hPhe(3-Cl-4-CF3)]P))	50 to 100	11
CC[C@H](C)[C@@H]1NC(=O)[C@H](CC(C)C)N(C)C(=O)C[C@@H](C(=O)N2CCCCC2)N(C)C(=O)[C@H](C(C)C)N(C)C(=O)C2(CCCC2)NC(=O)[C@@H]2CCCN2C(=O)[C@H](CCc2ccc(C(F)(F)F)c(Cl)c2)NC(=O)CN(C)C(=O)[C@H](Cc2ccccc2)N(C)C(=O)CN(C)C(=O)CN(C)C1=O [Compound 1598] ([NMeL]I[Sar][Sar][NMeF][Sar][hPhe(3-Cl-4-CF3)]P[Ac5c][NMeV][NMeD]-Piperidide; lactam N-11)	100 to 500	9.2
CC[C@H](C)[C@@H]1NC(=O)[C@H](CC(C)C)N(C)C(=O)C[C@@H](C)N(C)C(=O)[C@H](C(C)C)N(C)C(=O)C2(CCCC2)NC(=O)[C@@H]2CCCN2C(=O)[C@H](CCc2ccc(C(F)(F)F)c(Cl)c2)NC(=O)CN(C)C(=O)[C@H](Cc2ccccc2F)N(C)C(=O)CN(C)C(=O)CN(C)C1=O [Compound 1599] (cyclo([Ac5c][NMeV][NMedβ3hAla][NMeL]I[Sar][Sar][NMePhe(2-F)][Sar][hPhe(3-Cl-4-CF3)]P))	100 to 500	17
CC[C@H](C)[C@@H]1NC(=O)[C@H](CC(C)C)N(C)C(=O)C[C@@H](C)NC(=O)[C@H](C(C)C)N(C)C(=O)C2(CCCC2)NC(=O)[C@@H]2CCCN2C(=O)[C@H](CCc2ccc(C(F)(F)F)c(Cl)c2)NC(=O)CN(C)C(=O)[C@H](Cc2ccc(F)cc2)N(C)C(=O)CN(C)C(=O)CN(C)C1=O [Compound 1602] (cyclo([Ac5c][NMeV][d(β3hA)][NMeL]I[Sar][Sar][NMePhe(4-F)][Sar][hPhe(3-Cl-4-CF3)]P))	100 to 500	6.3
CC[C@H](C)[C@@H]1NC(=O)[C@H](CC(C)C)N(C)C(=O)C[C@@H](C)N(C)C(=O)[C@H](C(C)C)N(C)C(=O)C2(CCCC2)NC(=O)[C@@H]2CCCN2C(=O)[C@H](CCc2ccc(C(F)(F)F)c(Cl)c2)NC(=O)CN(C)C(=O)[C@H](Cc2ccccc2)N(C)C(=O)CN(C)C(=O)CN(C)C1=O [Compound 1604] (cyclo([Ac5c][NMeV][NMedβ3hAla][NMeL]I[Sar][Sar][NMeF][Sar][hPhe(3-Cl-4-CF3)]P))	50 to 100	5.8
CC[C@H](C)[C@@H]1NC(=O)[C@H](CC(C)C)N(C)C(=O)C[C@@H](C)NC(=O)[C@H](C(C)C)N(C)C(=O)C2(CCCC2)NC(=O)[C@@H]2CCCN2C(=O)[C@H](CCc2ccc(C(F)(F)F)c(Cl)c2)NC(=O)CN(C)C(=O)[C@H](Cc2ccc(OC)cc2)N(C)C(=O)CN(C)C(=O)CN(C)C1=O [Compound 1605] (cyclo([Ac5c][NMeV][d(β3hA)][NMeL]I[Sar][Sar][NMeY](Me)[Sar][hPhe(3-Cl-4-CF3)]P))	100 to 500	12
CC[C@H](C)[C@@H]1NC(=O)[C@H](CC)N(C)C(=O)C[C@@H](C)NC(=O)[C@H](C(C)C)N(C)C(=O)C2(CCCC2)NC(=O)[C@@H]2CCCN2C(=O)[C@H](CCc2ccc(C(F)(F)F)c(Cl)c2)NC(=O)CN(C)C(=O)[C@H](CC2CCCCC2)N(C)C(=O)[C@@H]2CCN2C(=O)[C@H](C)N(C)C1=O [Compound 1607] (cyclo([Ac5c][NMeV][d(β3hA)][NMeAbu]I[NMeA][Aze][NMeCha][Sar][hPhe(3-Cl-4-CF3)]P))	100 to 500	28
CC[C@H](C)[C@@H]1NC(=O)[C@H](CC(C)C)N(C)C(=O)C[C@@H](C(=O)N2CCCCC2)N(C)C(=O)[C@H](C(C)C)N(C)C(=O)C2(CCCC2)NC(=O)[C@@H]2CCCN2C(=O)[C@H](CCc2ccc(C(F)(F)F)c(Cl)c2)NC(=O)CN(C)C(=O)[C@H](CCc2ccccc2)N(C)C(=O)CN(C)C(=O)CN(C)C1=O [Compound 1608] ([NMeL]I[Sar][Sar][NMehPhe][Sar][hPhe(3-Cl-4-CF3)]P[Ac5c][NMeV][NMeD]-Piperidide; lactam N-11)	100 to 500	5.8
CC[C@H](C)[C@@H]1NC(=O)[C@H](CC(C)C)N(C)C(=O)C[C@@H](C(=O)N2CCCCC2)N(C)C(=O)[C@H](C(C)C)N(C)C(=O)C2(CCCC2)NC(=O)[C@@H]2CCCN2C(=O)[C@H](CCc2ccc(C(F)(F)F)c(Cl)c2)NC(=O)CN(C)C(=O)[C@H](Cc2cccc(Cl)c2)N(C)C(=O)CN(C)C(=O)CN(C)C1=O [Compound 1611] ([NMeL]I[Sar][Sar][NMePhe(3-Cl)][Sar][hPhe(3-Cl-4-CF3)]P[Ac5c][NMeV][NMeD]-Piperidide; lactam N-11)	100 to 500	3.2
CC[C@H](C)[C@@H]1NC(=O)[C@H](CC(C)C)N(C)C(=O)C[C@@H](C)N(C)C(=O)[C@H](C(C)C)N(C)C(=O)C2(CCCC2)NC(=O)[C@@H]2CCCN2C(=O)[C@H](CCc2ccc(C(F)(F)F)c(Cl)c2)NC(=O)CN(C)C(=O)[C@H](Cc2ccccc2Cl)N(C)C(=O)CN(C)C(=O)CN(C)C1=O [Compound 1615] (cyclo([Ac5c][NMeV][NMedβ3hAla][NMeL]I[Sar][Sar][NMePhe(2-Cl)][Sar][hPhe(3-Cl-4-CF3)]P))	100 to 500	40
